Legend:
PfPGK [1] = target: T1, PfPGK (Plasmodium falciparum, UniProt P27362); experiment: photo-affinity labelling, click TAMRA, in-gel fluorescence; type: binding; settings: covalent photo-crosslink on UV 365 nm; recombinant protein; competed by excess CQ
T1 construct: gene PGK
T1 sequence (P27362 1-416): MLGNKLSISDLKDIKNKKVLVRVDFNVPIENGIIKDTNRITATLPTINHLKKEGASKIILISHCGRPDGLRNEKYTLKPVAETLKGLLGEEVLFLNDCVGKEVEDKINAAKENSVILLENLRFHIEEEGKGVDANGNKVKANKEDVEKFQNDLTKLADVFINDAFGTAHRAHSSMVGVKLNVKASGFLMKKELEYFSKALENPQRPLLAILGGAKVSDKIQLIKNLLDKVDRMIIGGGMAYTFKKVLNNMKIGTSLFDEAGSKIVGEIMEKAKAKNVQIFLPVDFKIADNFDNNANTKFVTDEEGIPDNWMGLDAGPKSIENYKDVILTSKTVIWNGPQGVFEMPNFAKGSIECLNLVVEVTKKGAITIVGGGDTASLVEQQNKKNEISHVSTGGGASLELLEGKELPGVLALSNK

PfLDH [2] = target: T2, PfLDH (Plasmodium falciparum, UniProt Q76NM3); experiment: as above; type: binding; settings: covalent photo-crosslink on UV 365 nm; recombinant protein; competed by excess CQ
T2 construct: gene PF3D7_1324900
T2 sequence (Q76NM3 1-316): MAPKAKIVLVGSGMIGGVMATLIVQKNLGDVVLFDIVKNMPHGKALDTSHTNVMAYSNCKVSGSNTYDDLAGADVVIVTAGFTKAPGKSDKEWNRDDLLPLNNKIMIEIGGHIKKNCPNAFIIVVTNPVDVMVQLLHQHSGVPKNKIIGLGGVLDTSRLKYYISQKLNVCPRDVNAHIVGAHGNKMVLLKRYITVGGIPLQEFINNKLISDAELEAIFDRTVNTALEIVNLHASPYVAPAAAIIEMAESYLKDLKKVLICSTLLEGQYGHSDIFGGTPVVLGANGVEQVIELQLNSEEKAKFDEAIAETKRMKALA

PfOAT [3] = target: T3, PfOAT (Plasmodium falciparum, UniProt Q6LFH8); experiment: as above; type: binding; settings: covalent photo-crosslink on UV 365 nm; recombinant protein; competed by excess CQ
T3 construct: gene OAT
T3 sequence (Q6LFH8 1-414): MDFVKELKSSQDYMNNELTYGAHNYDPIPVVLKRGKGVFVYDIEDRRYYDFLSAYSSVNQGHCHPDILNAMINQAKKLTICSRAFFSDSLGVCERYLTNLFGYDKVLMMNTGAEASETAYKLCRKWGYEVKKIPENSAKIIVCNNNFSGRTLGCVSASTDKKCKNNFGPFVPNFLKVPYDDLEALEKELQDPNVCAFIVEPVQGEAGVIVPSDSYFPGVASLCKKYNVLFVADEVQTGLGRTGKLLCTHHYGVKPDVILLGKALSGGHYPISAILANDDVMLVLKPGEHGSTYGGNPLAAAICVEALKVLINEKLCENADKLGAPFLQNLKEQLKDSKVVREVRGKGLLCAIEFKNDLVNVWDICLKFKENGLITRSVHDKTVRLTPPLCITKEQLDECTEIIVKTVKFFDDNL

PfPyrK [4] = target: T4, PfPyrK (Plasmodium falciparum, UniProt C6KTA4); experiment: as above; type: binding; settings: covalent photo-crosslink on UV 365 nm; recombinant protein; competed by excess CQ
T4 construct: gene PF3D7_0626800
T4 sequence (C6KTA4 1-511): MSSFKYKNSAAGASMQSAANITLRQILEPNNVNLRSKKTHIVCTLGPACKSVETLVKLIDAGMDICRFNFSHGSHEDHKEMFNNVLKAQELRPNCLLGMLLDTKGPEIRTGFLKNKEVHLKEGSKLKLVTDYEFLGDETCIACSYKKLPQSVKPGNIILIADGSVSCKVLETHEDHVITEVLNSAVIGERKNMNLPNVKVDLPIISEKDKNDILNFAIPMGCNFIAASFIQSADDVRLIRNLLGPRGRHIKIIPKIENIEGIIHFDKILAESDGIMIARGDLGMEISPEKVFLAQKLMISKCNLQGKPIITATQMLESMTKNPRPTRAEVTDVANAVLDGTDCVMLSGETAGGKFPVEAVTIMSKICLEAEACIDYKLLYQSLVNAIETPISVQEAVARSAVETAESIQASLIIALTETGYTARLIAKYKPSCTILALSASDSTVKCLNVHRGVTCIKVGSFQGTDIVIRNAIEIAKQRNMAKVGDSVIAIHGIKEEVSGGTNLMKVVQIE

PfTPI [5] = target: T5, PfTPI (Plasmodium falciparum, UniProt Q7KQM0); experiment: as above; type: binding; settings: covalent photo-crosslink on UV 365 nm; recombinant protein; competed by excess CQ
T5 construct: gene TPI
T5 sequence (Q7KQM0 whole entry): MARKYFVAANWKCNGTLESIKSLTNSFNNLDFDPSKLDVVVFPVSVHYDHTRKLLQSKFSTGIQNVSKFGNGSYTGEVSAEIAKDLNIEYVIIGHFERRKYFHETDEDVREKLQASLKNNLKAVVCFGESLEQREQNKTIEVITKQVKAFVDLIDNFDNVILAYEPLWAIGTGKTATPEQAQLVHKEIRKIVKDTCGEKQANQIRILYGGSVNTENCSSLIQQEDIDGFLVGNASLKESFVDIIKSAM

PfLDH [6] = target: T2, PfLDH; experiment: SPR (BIAcore); type: binding; settings: read-out: KCQ-PfLDH
plasmepsin II = target: T6, plasmepsin II (Plasmodium falciparum, UniProt Q8I6V3); experiment: ITDR MS-CETSA thermal shift; type: biochemical; settings: parasite lysate, CQ 0-300 µmol/L; heated at 37, 52 or 61 °C
T6 construct: gene PMII; native protein in soluble parasite lysate
T6 sequence (Q8I6V3 125-453): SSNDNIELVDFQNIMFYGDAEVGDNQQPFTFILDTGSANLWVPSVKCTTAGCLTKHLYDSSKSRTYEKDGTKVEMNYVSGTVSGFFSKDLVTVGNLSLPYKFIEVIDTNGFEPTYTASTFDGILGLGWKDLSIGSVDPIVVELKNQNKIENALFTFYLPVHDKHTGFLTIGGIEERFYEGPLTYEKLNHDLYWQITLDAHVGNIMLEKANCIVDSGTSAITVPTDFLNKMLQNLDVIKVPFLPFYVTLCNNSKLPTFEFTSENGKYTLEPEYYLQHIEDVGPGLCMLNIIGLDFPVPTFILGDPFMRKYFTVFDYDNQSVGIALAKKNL

PfLDH [7] = target: T2, PfLDH; experiment: enzyme activity inhibition, dose-response; type: biochemical; settings: recombinant protein
PfOAT [8] = target: T3, PfOAT; experiment: SPR (BIAcore); type: binding; settings: read-out: KCQ-PfOAT
PfPGK [9] = target: T1, PfPGK; experiment: SPR (BIAcore); type: binding; settings: read-out: KCQ-PfPGK
PfPyrK [10] = target: T4, PfPyrK; experiment: enzyme activity inhibition, dose-response; type: biochemical; settings: recombinant protein
PfPGK [11] = target: T1, PfPGK; experiment: enzyme activity inhibition, dose-response; type: biochemical; settings: recombinant protein
PfTPI [12] = target: T5, PfTPI; experiment: enzyme activity inhibition, dose-response; type: biochemical; settings: recombinant protein
falcilysin = target: T7, falcilysin (Plasmodium falciparum, UniProt Q76NL8); experiment: ITDR MS-CETSA thermal shift; type: biochemical; settings: parasite lysate, CQ 0-300 µmol/L; heated at 37, 52 or 61 °C
T7 construct: gene FLN; native protein in soluble parasite lysate
T7 sequence (Q76NL8 1-1193): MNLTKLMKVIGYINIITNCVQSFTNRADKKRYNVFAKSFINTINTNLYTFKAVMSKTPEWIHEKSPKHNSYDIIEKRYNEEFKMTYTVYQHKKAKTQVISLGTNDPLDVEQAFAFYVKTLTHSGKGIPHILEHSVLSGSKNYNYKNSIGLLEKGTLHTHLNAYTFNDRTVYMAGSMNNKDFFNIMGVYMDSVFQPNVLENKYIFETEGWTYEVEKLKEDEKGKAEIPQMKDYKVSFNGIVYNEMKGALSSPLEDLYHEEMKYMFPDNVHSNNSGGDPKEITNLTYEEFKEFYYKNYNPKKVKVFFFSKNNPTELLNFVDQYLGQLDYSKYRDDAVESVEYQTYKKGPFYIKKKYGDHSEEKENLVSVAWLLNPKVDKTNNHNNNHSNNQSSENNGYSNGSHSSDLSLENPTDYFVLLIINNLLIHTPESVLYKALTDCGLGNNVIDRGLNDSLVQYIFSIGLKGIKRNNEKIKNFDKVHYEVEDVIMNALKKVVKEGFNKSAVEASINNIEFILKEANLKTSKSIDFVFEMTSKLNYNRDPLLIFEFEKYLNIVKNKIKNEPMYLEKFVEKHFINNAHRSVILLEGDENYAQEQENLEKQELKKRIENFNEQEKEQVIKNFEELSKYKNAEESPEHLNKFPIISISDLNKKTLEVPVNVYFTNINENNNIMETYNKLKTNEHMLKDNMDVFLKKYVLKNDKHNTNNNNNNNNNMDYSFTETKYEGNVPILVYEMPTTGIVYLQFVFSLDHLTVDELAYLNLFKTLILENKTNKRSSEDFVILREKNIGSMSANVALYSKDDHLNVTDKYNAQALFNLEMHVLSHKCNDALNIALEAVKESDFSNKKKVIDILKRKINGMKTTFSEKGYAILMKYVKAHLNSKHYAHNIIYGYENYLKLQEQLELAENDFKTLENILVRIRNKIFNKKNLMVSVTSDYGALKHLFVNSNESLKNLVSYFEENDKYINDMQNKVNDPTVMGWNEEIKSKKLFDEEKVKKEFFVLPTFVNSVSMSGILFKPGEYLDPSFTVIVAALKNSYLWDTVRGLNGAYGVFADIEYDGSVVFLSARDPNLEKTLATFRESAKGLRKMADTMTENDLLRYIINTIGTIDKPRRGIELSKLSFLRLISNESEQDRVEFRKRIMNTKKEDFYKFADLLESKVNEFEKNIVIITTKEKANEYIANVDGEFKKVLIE

PfTPI [13] = target: T5, PfTPI; experiment: SPR (BIAcore); type: binding; settings: read-out: KCQ-PfTPI
PfOAT [14] = target: T3, PfOAT; experiment: enzyme activity inhibition, dose-response; type: biochemical; settings: recombinant protein
PfPyrK [15] = target: T4, PfPyrK; experiment: SPR (BIAcore); type: binding; settings: read-out: KCQ-PfPyrK
plasmepsin IV = target: T8, plasmepsin IV (Plasmodium falciparum, UniProt Q8IM16); experiment: ITDR MS-CETSA thermal shift; type: biochemical; settings: parasite lysate, CQ 0-300 µmol/L; heated at 37, 52 or 61 °C
T8 construct: gene PMIV; native protein in soluble parasite lysate
T8 sequence (Q8IM16 122-449): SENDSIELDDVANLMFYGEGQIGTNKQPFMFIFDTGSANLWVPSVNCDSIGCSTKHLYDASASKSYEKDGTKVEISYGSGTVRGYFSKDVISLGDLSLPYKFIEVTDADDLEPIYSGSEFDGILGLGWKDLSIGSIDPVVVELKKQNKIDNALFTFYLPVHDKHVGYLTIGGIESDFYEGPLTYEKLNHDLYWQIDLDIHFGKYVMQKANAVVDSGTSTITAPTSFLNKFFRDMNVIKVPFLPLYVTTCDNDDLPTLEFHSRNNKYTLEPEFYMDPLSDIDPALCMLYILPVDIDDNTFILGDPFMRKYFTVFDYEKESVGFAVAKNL

| Compound | photo-affinity labelling, click TAMRA, in-gel fluorescence (PfPGK [1]) | photo-affinity labelling, click TAMRA, in-gel fluorescence (PfLDH [2]) | photo-affinity labelling, click TAMRA, in-gel fluorescence (PfOAT [3]) | photo-affinity labelling, click TAMRA, in-gel fluorescence (PfPyrK [4]) | photo-affinity labelling, click TAMRA, in-gel fluorescence (PfTPI [5]) | Kd (PfLDH [6]) | thermal shift (plasmepsin II) | inhibition of enzymatic activity (PfLDH [7]) | Kd (PfOAT [8]) | Kd (PfPGK [9]) | inhibition of enzymatic activity (PfPyrK [10]) | inhibition of enzymatic activity (PfPGK [11]) | inhibition of enzymatic activity (PfTPI [12]) | thermal shift (falcilysin) | Kd (PfTPI [13]) | inhibition of enzymatic activity (PfOAT [14]) | Kd (PfPyrK [15]) | thermal shift (plasmepsin IV) |
| --- | --- | --- | --- | --- | --- | --- | --- | --- | --- | --- | --- | --- | --- | --- | --- | --- | --- | --- |
| C#CCOCCC1(CCOCc2cn(CCCCC(=O)N(CC)CCCC(C)Nc3ccnc4cc(Cl)ccc34)nn2)N=N1 (stereo not drawn) [CQP] | CQP specifically binds to recombinant PfLDH, PfOAT, PfPyrK, PfPGK, and PfTPI proteins | CQP specifically binds to recombinant PfLDH, PfOAT, PfPyrK, PfPGK, and PfTPI proteins | CQP specifically binds to recombinant PfLDH, PfOAT, PfPyrK, PfPGK, and PfTPI proteins | CQP specifically binds to recombinant PfLDH, PfOAT, PfPyrK, PfPGK, and PfTPI proteins | CQP specifically binds to recombinant PfLDH, PfOAT, PfPyrK, PfPGK, and PfTPI proteins |  |  |  |  |  |  |  |  |  |  |  |  |  |
| CCN(CC)CCCC(C)Nc1ccnc2cc(Cl)ccc12 (stereo not drawn) [CQ] |  |  |  |  |  | 320 nM | plasmepsin II and plasmepsin IV also showed significant thermal shift | CQ inhibits the enzymatic activities of the recombinant PfLDH (a) | 1910 nM | 1950 nM | CQ inhibits the enzymatic activities of the recombinant PfLDH (a), PfOAT (b), PfPyrK (c) | PfPGK (d) and PfTPI (e) proteins in vitro in a dose-dependent manner | PfPGK (d) and PfTPI (e) proteins in vitro in a dose-dependent manner | falcilysin as well as other hemoglobin proteolytic enzymes | 1180 nM | CQ inhibits the enzymatic activities of the recombinant PfLDH (a), PfOAT (b) | 850 nM | plasmepsin II and plasmepsin IV also showed significant thermal shift |

Reference: article PMC9195458, “Identification of antimalarial targets of chloroquine by a combined deconvolution strategy of ABPP and MS-CETSA” (Military Medical Research, 2022)
